# From ChEMBL document CHEMBL5375989, “Pioneering 4,11-Dioxo-4,11-dihydro-1H-anthra[2,3-d]imidazol-3-ium Compounds as Promising Survivin Inhibitors by Targeting ILF3/NF110 for Cancer Therapy” (J Med Chem, 2023)
# pKd: −log10 of the molar value. Calls of active or inactive are those of the source. No cut-off for these calls is given here.
# Experiments:
# A549 [1] = test: Antitumor activity against human A549 cells xenografted in BALB/c nude mouse assessed as inhibition of tumor growth at 2 mg/kg, sc administered every 2 days for 14 days; assay type: functional, organism-based; details: time 14.0 day
# [2] = Toxicity in BALB/c nude mouse assessed as effect on body weight at 2 mg/kg, sc administered every 2 days for 14 days; assay type: organism-based; details: in vivo, 336 h, time 14 day
# [3] = Toxicity in BALB/c nude mouse assessed as side effects at 2 mg/kg, sc administered every 2 days for 14 days; assay type: organism-based; details: in vivo, 336 h, time 14 day
# [4] = Toxicity in BALB/c mouse assessed as appearance of acidophilic degeneration of myocardial cells at 2 mg/kg by H and E staining based analysis; assay type: organism-based; details: in vivo
# [5] = Toxicity in BALB/c mouse assessed as appearance of spotty necrosis of hepatocytes at 2 mg/kg by H and E staining based analysis; assay type: organism-based; details: in vivo
# [6] = Toxicity in BALB/c mouse assessed as appearance of severe damage to spleen tissue at 2 mg/kg by H and E staining based analysis; assay type: organism-based; details: in vivo
# A549 [7] = test: Antitumor activity against human A549 cells xenografted in BALB/c nude mouse assessed as increase in apoptosis at 2 mg/kg measured after 14 days by tunel staining based analysis; assay type: functional, organism-based; details: time 14.0 day
# A549 [8] = test: Antitumor activity against human A549 cells xenografted in BALB/c nude mouse assessed as appearance of various size of tumor necrosis at 2 mg/kg measured after 14 days by H and E staining based analysis; assay type: functional, organism-based; details: time 14.0 day
# A549 [9] = test: Antitumor activity against human A549 cells xenografted in BALB/c nude mouse assessed as decrease in tumor cell proliferation at 2 mg/kg measured after 14 days by Ki67 staining based analysis; assay type: functional, organism-based; details: time 14.0 day
# A549 [10] = test: Antitumor activity against human A549 cells xenografted in BALB/c nude mouse assessed as decrease in tumor cell proliferation at 2 mg/kg measured after 14 days by PCNA staining based analysis; assay type: functional, organism-based; details: time 14.0 day
# [11] = Selectivity index, ratio of IC50 for mouse L929 cells to IC50 for human A549 cells; assay type: toxicity; details: L929 cells and A549 cells, read-out: Ratio IC50
# [12] = Antiproliferative activity against mouse NIH3T3 cells assessed as inhibition of cell growth measured after 48 hrs by MTT assay; assay type: toxicity, cell-based; details: mouse, NIH3T3 cells
# [13] = Antiproliferative activity against human HUVEC cells assessed as inhibition of cell growth measured after 48 hrs by MTT assay; assay type: toxicity, cell-based; details: human, HUVEC cells
# [14] = Antiproliferative activity against human MRC5 cells assessed as inhibition of cell growth measured after 48 hrs by MTT assay; assay type: toxicity, cell-based; details: human, MRC5 cells
# [15] = Toxicity in BALB/c mouse assessed as varying degree of multifocal alveolar luminal hemorrhage at 2 mg/kg by H and E staining based analysis; assay type: organism-based; details: in vivo
# [16] = Toxicity in BALB/c mouse assessed as morphological changes with karyopyknosis in spleen at 2 mg/kg by H and E staining based analysis; assay type: organism-based; details: in vivo
# [17] = Toxicity in BALB/c mouse assessed as morphological changes with karyorrhexis in spleen at 2 mg/kg by H and E staining based analysis; assay type: organism-based; details: in vivo
# [18] = biological target: T1, Interleukin enhancer-binding factor 3 (Homo sapiens, UniProt Q12906); test: Binding affinity to ILF3 (unknown origin) assessed as dissociation constant at upto 1 uM by SPR method
# T1 sequence (Q12906 whole entry): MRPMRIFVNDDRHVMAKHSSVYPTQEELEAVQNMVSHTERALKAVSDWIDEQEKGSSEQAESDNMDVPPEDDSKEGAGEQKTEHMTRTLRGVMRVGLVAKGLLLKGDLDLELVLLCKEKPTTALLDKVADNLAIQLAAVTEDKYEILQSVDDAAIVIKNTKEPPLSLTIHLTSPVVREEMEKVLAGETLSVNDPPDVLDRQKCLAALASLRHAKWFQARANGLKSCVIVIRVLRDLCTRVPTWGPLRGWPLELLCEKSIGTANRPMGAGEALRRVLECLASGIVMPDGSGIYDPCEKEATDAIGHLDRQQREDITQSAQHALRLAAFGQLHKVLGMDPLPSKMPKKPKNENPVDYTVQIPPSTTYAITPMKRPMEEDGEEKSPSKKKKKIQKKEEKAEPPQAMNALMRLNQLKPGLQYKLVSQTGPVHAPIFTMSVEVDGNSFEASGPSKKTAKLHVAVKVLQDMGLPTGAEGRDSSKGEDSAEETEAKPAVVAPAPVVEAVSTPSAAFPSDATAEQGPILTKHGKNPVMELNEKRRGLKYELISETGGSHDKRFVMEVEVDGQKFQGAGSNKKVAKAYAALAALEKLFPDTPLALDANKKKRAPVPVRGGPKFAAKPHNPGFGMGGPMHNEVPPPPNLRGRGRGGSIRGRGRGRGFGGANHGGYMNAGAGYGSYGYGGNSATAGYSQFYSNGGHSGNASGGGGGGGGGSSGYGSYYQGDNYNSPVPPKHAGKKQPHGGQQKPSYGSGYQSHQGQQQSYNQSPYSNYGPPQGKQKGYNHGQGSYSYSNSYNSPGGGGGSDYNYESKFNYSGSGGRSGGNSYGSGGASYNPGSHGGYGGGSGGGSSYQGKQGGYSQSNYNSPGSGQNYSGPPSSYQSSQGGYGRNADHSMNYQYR
# [19] = Drug uptake in Sprague-Dawley rat blood at 2 mg/kg measured after 2 hrs by UPLC-3Q analysis; assay type: ADME, organism-based; details: in vivo
# [20] = Drug distribution in BALB/C nude mouse heart xenografted with human A549 cells at 2 mg/kg measured after 2 to 6 hrs by UPLC-3Q analysis; assay type: ADME, organism-based; details: in vivo, time 2-6 hrs
# [21] = Drug metabolism in BALB/C nude mouse kidney xenografted with human A549 cells at 2 mg/kg measured after 2 to 6 hrs by UPLC-3Q analysis; assay type: ADME, organism-based; details: in vivo, time 2-6 hrs
# [22] = Toxicity in BALB/c mouse assessed as appearance of renal tubular necrosis in cortex at 2 mg/kg by H and E staining based analysis; assay type: organism-based; details: in vivo
# [23] = Toxicity in BALB/c mouse assessed as appearance of condensed nuclei at 2 mg/kg by H and E staining based analysis; assay type: organism-based; details: in vivo
# [24] = Toxicity in BALB/c mouse assessed as disappearance of nuclei at 2 mg/kg by H and E staining based analysis; assay type: organism-based; details: in vivo
smiles,measurement,setting,value
COc1cccc2c1C(=O)c1c(O)c3c(c(O)c1C2=O)C[C@@](O)(C(=O)CO)C[C@@H]3O[C@H]1C[C@H](N)[C@H](O)[C@H](C)O1 [DOXORUBICIN],Activity,A549 [1],Active
same,Activity,[2],Toxic
same,Activity,[3],Toxic
same,Activity,[4],Toxic
same,Activity,[5],Toxic
same,Activity,[6],Toxic
same,Activity,A549 [7],Active
same,Activity,A549 [8],Active
same,Activity,A549 [9],Active
same,Activity,A549 [10],Active
COCCn1c2c([n+](Cc3cnccn3)c1C)C(=O)c1ccccc1C2=O.[Br-] [SEPANTRONIUM BROMIDE],selectivity ratio,[11],970
same,IC50 at 48 h,[12],13600 nM
same,IC50 at 48 h,[13],920 nM
same,IC50 at 48 h,[14],1940 nM
same,Activity,[15],Toxic
same,Activity,[16],Toxic
same,Activity,[17],Toxic
same,pKd,[18],6.24
same,Drug uptake,[19],Not Active
same,Drug uptake,[20],Active
same,Drug metabolism,[21],Metabolite_Detected
same,Activity,[22],Toxic
same,Activity,[23],Toxic
same,Activity,[24],Toxic
